# Data reported in article PMC10609143, “Inhibitory Mechanisms of Lekethromycin in Dog Liver Cytochrome P450 Enzymes Based on UPLC-MS/MS Cocktail Method” (Molecules, 2023).
# Where two headings read alike, the source gives them in different places.
# B1: CYP1A2 (Canis lupus familiaris) (protein)
# chain: MALSQMATGLLLASTIFCLILWVVKAWQPRLPKGLKSPPGPWGWPLLGNVLTLGKSPHLALSRLSQRYGDVLQIRIGSTPVLVLSGLDTIRQALVRQGDDFKGRPDLYSLSLITDSQSMSFSPDSGPVWAAGRRLAQNALNTFSIASDPASSCSCYLEEHVSKEAEALLSRLQEQMAEVGRFDPYNQVLLSVANVIGAMCFGHHFSQRSEEMLPLLMSSSDFVETVSSGNPLDFFPILQYMPNSALQRFKNFNQTFVQSLQKIVQEHYQDFDERSVQDITGALLKHNEKSSRASDGHIPQEKIVNLINDIFGAGFDTVTTAISWSLMYLVANPEIQRQIQKELDTVIGRARQPRLSDRPQLPLMEAFILEIFRHTSFVPFTIPHSTTKDTTLKGFYIPKECCVFINQWQVNHDQQVWGDPFAFRPERFLTADGTTINKTLSEKVMLFGMGKRRCIGEVLAKWEIFLFLAILLQRLEFSVPAGVKVDLTPIYGLTMKHTRCEHVQARPRFSIK
# B2: CYP2B6 (Canis lupus familiaris) (protein)
# chain: MELSVLLLLALLTGLLLLMARGHPKAYGHLPPGPRPLPILGNFLQMDRKGLLKSFLRLQEKYGDVFTVYLGPRRTVMLCGIDAIREALVDNAEAFSGRGKIAVVEPVFQGYGVVFANGERWKTLRRFSLATMRDFGMGKRSVEERIQEEAQCLVEELRKTEGVLQDPTFFFHSMTANIICSIVFGKRFGYKDPEFLRLMNLFYVSFALISSFSSQMFELFHSFLKYFPGTHRQVYNNLQEIKAFIARMVEKHRETLDPSAPRDFIDAYLIRMDKEKAEPSSEFHHRNLIDTALSLFFAGTETTSTTLRYGFLLMLKYPHIAERIYKEIDQVIGPHRLPSLDDRAKMPYTDAVIHEIQRFGDLLPIGVPHMVTKDICFRGYIIPKGTEVFPILHSALNDPHYFEKPDVFNPDHFLDANGALKKNEAFIPFSIGKRICLGEGIARMELFLFFTTILQNFSVASPMAPEDIDLTPQEIGVGKLPPVYQISFLSRGGC
# notes: from tissue; host or cells: dog liver microsomes (DLM)
# B3: CYP2D6 (Canis lupus familiaris) (protein)
# chain: MGLLTGDTLGPLAVAVAIFLLLVDLMHRRRRWATRYPPGPTPVPMVGNLLQMDFQEPICYFSQLQGRFGNVFSLELAWTPVVVLNGLEAVREALVHRSEDTADRPPMPIYDHLGLGPESQGLFLARYGRAWREQRRFSLSTLRNFGLGRKSLEQWVTEEASCLCAAFAEQAGRPFGPGALLNKAVSNVISSLTYGRRFEYDDPRLLQLLELTQQALKQDSGFLREALNSIPVLLHIPGLASKVFSAQKAIITLTNEMIQEHRKTRDPTQPPRHLIDAFVDEIEKAKGNPKTSFNEENLCMVTSDLFIAGMVSTSITLTWALLLMILHPDVQRRVQQEIDEVIGREQLPEMGDQTRMPFTVAVIHEVQRFGDIVPLGVPHMTSRDTEVQGFLIPKGTTLITNLSSVLKDEKVWKKPFRFYPEHFLDAQGHFVKHEAFMPFSAGRRVCLGEPLARMELFLFFTCLLQRFSFSVPAGQPRPSDHGVFTFLKVPAPFQLCVEPR
# Experiments:
# CYP2A6 [1] = test system: CYP2A6; design: method as in PMID 11307970; conditions: dog liver microsomes, literature; cited from earlier work
# CYP2A6 [2] = experiment: Enzyme kinetic study of probe substrate in dog liver microsomes; format: in vitro ADME
# Experimental: (§4) The CYP450 enzymatic activities were characterized by their probe substrate reactions. […] NADPH was added to initiate the reaction after a 5 min preincubation period at 37 °C in a thermos shaker. Of note, the volume of the final organic solvent in the incubation system should be below <1% (v/v) [21]. All experiments were performed in triplicate.
# CYP2D6 = conditions: in vitro drug metabolism studies; cited from earlier work
# CYP1A2 = test system: CYP1A2; design: method as in PMID 12433797; conditions: in vitro drug metabolism studies; cited from earlier work
# CYP3A4 [3] = conditions: dog liver microsomes, literature; cited from earlier work
# CYP3A4 [4] = conditions: mini-pig; cited from earlier work
# [5] = Enzyme kinetic study of probe substrate in dog liver microsomes; format: in vitro ADME; conditions: pH 7.4, probe testosterone (6β-hydroxylation), 15 min, 0.2 mg/mL, n = 3, read-out: Km (Michaelis–Menten constant)
# Experimental: (§1) The CYP450 enzymatic activities were characterized by their probe substrate reactions. Incubation mixtures were prepared in a total volume of 200 μL, which consisted of PBS (pH = 7.4), NADPH, probe substrates, and various concentrations of tested compounds. NADPH was added to initiate the reaction after a 5 min preincubation period at 37 °C in a thermos shaker. Of note, the volume of the final organic solvent in the incubation system should be below <1% (v/v). All experiments were performed in triplicate.
# (§2) The Vmax and Km were calculated using GraphPad Prism v.8.0.2 (GraphPad software Inc., San Diego, CA, USA) via the Michaelis–Menten kinetic model. In addition, incubation times of 0–60 min were examined for mixed probe substrates. Various DLM protein concentrations (0.05–1 mg/mL) in the incubation mixture were carried out.
# (§3) Then, 400 μL of cool ACN containing the 20 μL internal standard was added to terminate the reaction. Samples were vortexed for 2 min and centrifuged at 14,000 rpm for 10 min (4 °C). Next, the supernatant was steamed under nitrogen (40 °C) until dry. Then, it was dissolved with 200 µL of ACN: H2O = 80:20 (v/v). Finally, after filtering with a 0.22 μm membrane, an aliquot of 5 µL was injected into the UPLC-MS/MS for analysis.
# CYP3A4 [6] = experiment: as above; format: in vitro ADME; conditions: testosterone 6β-hydroxylation, n = 3
# Experimental: as §1, §2, §3
# CYP3A4 [7] = conditions: rat; cited from earlier work
# [8] = substrate: CCOc1ccc(NC(C)=O)cc1; experiment: cells, lysate or membranes named; conditions: other: phenacetin O-deethylation, dog liver microsomes, 15 min, 0.2 mg/mL, n = 3; pH 7.4
# [9] = substrate: CC(NC(C)(C)C)C(=O)c1cccc(Cl)c1; experiment: Enzyme kinetic study of probe substrate in dog liver microsomes; format: in vitro ADME; conditions: other: bupropion hydroxylation, 15 min, 0.2 mg/mL, n = 3, pH 7.4
# Experimental: as §4
# [10] = substrate: COc1ccc2c(c1)[C@]13CCCC[C@@H]1[C@H](C2)N(C)CC3; experiment: cells, lysate or membranes named; conditions: other: dextromethorphan O-demethylation, dog liver microsomes, 15 min, 0.2 mg/mL, n = 3; pH 7.4
# Experimental: as §4
molecule,measurement,setting,value
"O=c1ccc2ccccc2o1 [CAN, coumarin]",Km,CYP2A6 [1],2 to 4.3 µM
same,Vmax,CYP2A6 [1],1488–1656 pmol/min/mg/microsomal protein
same,Vmax (maximum rate of an enzyme-catalyzed reaction),"CYP2A6 [2]; coumarin hydroxylation, n = 3",0.034 nmol/min/mg protein
same,Km at 15 min,"CYP2A6 [2]; pH 7.4, probe coumarin (hydroxylation), 15 min, 0.2 mg/mL, n = 3, read-out: Km (Michaelis–Menten constant)",410 nM
"COc1ccc2c(c1)[C@]13CCCC[C@@H]1[C@H](C2)N(C)CC3 [DEX, dextromethorphan]",Km,CYP2D6,2 to 10 µM
"CCOc1ccc(NC(C)=O)cc1 [PH, phenacetin]",Km,CYP1A2,10 to 50 µM
"C[C@]12CC[C@H]3[C@@H](CCC4=CC(=O)CC[C@@]43C)[C@@H]1CC[C@@H]2O [TS, testosterone]",Km,CYP3A4 [3],192 µM
same,Vmax,CYP3A4 [3],68–180 pmol/min/mg/microsomal protein
same,Km,CYP3A4 [4],79 µM
same,Km at 15 min,[5],85.2 µM
same,Vmax (maximum rate of an enzyme-catalyzed reaction),CYP3A4 [6],1.49 nmol/min/mg protein
same,Km,CYP3A4 [7],84 µM
B1,Km,[8],5.39 µM
same,Vmax,[8],0.00022 µmol/min/mg
B2,Km,[9],9.15 µM
same,Vmax,[9],0.00143 µmol/min/mg
B3,Km,[10],6.33 µM
same,Vmax,[10],0.00616 µmol/min/mg
